Results taken from US11427548B2 (Arvinas Operations, Inc., priority 2015, dated 2022).
Like-named read-outs stand apart in the source and are kept apart here.

Target: T1, Androgen Receptor (Homo sapiens, UniProt P10275)
T1 construct: endogenous in cells; host or cells: VCaP cells
T1 sequence (P10275 1-920): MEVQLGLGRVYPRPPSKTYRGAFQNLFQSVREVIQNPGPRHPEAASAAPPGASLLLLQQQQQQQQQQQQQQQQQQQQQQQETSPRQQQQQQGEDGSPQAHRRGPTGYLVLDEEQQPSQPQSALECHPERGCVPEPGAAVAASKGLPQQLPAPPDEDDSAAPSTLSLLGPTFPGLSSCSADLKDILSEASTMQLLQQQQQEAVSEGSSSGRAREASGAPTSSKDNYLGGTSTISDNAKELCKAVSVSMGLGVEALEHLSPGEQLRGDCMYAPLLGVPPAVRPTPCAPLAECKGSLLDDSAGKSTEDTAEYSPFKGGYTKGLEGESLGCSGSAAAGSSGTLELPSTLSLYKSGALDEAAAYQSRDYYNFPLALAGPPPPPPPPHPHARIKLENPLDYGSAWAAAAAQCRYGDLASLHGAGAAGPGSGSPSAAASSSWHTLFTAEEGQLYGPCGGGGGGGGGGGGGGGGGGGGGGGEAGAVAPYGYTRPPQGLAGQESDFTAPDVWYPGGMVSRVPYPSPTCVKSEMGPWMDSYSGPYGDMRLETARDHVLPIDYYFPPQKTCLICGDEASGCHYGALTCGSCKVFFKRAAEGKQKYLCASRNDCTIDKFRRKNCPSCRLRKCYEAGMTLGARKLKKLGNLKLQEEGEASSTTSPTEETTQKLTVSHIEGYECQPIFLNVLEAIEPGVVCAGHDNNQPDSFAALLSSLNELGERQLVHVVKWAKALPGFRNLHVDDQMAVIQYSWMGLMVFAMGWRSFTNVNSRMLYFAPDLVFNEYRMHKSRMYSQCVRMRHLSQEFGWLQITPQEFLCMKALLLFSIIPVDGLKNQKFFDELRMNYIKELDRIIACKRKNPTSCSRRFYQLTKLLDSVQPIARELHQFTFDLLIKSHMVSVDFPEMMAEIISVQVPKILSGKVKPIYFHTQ
Test: Androgen Receptor ELISA assay (PathScan AR ELISA) in VCaP cells: AR degradation, Dmax and DC50
Type: cell-based
Conditions: for DC50: read-out: VCaP DC50; for Dmax: VCaP, read-out: VCaP Dmax (%)
In short: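 VCaP cells, 30,000/well, grown ≥3 days in phenol red-free RPMI with 5% charcoal-stripped FBS; compound added in 0.1% DMSO with 0.1 nM R1881, 7 half-log doses, 24 h. Lysate AR quantified by PathScan sandwich ELISA, HRP/TMB read at 450 nm, giving DC50 and Dmax.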

SMILES | DC50 (VCaP cells, Table 36) [nM] | Dmax (VCaP cells, Table 36) [%] | Dmax [%]
CC(C)[C@H](C(=O)N1C[C@H](O)C[C@H]1C(=O)NCc1ccc(Cl)cc1)N1Cc2ccc(N3CCN(CCCc4ccc(C(=O)N[C@H]5C(C)(C)[C@H](Oc6ccc(C#N)c(C(F)(F)F)c6)C5(C)C)cc4)CC3)cc2C1=O [Example 769, (2S,4R)-N-(4-chlorobenzyl)-1-((R)-2-(6-(4-(3-(4-(((1r,3r)-3-(4-cyano-3-(trifluoromethyl)phenoxy)-2,2,4,4-tetramethylcyclobutyl)carbamoyl)phenyl)propyl)piperaizn-1-yl)-1-oxoisoindolin-2-yl)-3-methylbutanoyl)-4-hydroxypyrrolidine-2-carboxamide] | > 501 | < 25 | –
CC(C)[C@@H](C(=O)N1C[C@H](O)C[C@H]1C(=O)NCc1ccc(Cl)cc1)N1Cc2ccc(N3CCN(CCCc4ccc(C(=O)N[C@H]5C(C)(C)[C@H](Oc6ccc(C#N)c(C(F)(F)F)c6)C5(C)C)cc4)CC3)cc2C1=O [Example 770, (2S,4R)-N-(4-chlorobenzyl)-1-((S)-2-(6-(4-(3-(4-(((1r,3r)-3-(4-cyano-3-(trifluoromethyl)phenoxy)-2,2,4,4-tetramethylcylcobutyl)carbamoyl)phenyl)propyl)piperazin-1-yl)-1-oxoisoindolin-2-yl)-3-methylbutanoyl)-4-hydroxypyrrolidine-2-carboxamide] | > 501 | < 25 | –
CC(C)[C@H](C(=O)N1C[C@H](O)C[C@H]1C(=O)NCc1ccc(C#N)cc1)N1Cc2ccc(N3CCN(CCCc4ccc(C(=O)N[C@H]5C(C)(C)[C@H](Oc6ccc(C#N)c(C(F)(F)F)c6)C5(C)C)cc4)CC3)cc2C1=O [Example 771, (2S,4R)-1-((R)-2-(6-(4-(3-(4-(((1r,3r)-3-(4-cyano-3-(trifluoromethyl)phenoxy)-2,2,4,4-tetramethylcyclobutyl)carbamoyl)phenyl)propyl)piperazin-1-yl)-1-oxoisoindolin-2-yl)-3-methylbutanoyl)-N-(4-cyanobenzyl)-4-hydroxypyrrolidine-2-carboxamide] | > 501 | < 25 | –
CC(C)[C@@H](C(=O)N1C[C@H](O)C[C@H]1C(=O)NCc1ccc(C#N)cc1)N1Cc2ccc(N3CCN(CCCc4ccc(C(=O)N[C@H]5C(C)(C)[C@H](Oc6ccc(C#N)c(C(F)(F)F)c6)C5(C)C)cc4)CC3)cc2C1=O [Example 772, (2S,4R)-1-((S)-2-(6-(4-(3-(4-(((1r,3r)-3-(4-cyano-3-(trifluoromethyl)phenoxy)-2,2,4,4-tetramethylcyclobutyl)carbamoyl)phenyl)propyl)piperazin-1-yl)-1-oxoisoindolin-2-yl)-3-methylbutanoyl)-N-(4-cyanobenzyl)-4-hydroxypyrrolidine-2-carboxamide] | > 501 | < 25 | –
Cc1ncsc1-c1ccc(CNC(=O)[C@@H]2C[C@@H](O)CN2C(=O)[C@@H](C(C)C)N2Cc3ccc(N4CCN(CCCc5ccc(C(=O)N[C@H]6C(C)(C)[C@H](Oc7ccc(C#N)c(Cl)c7)C6(C)C)cc5)CC4)cc3C2=O)cc1 [Example 773, (2S,4R)-1-((R)-2-(6-(4-(3-(4-(((1r,3r)-3-(3-chloro-4-cyanophenoxy)-2,2,4,4-tetramethylcyclobutyl)carbamoyl)phenyl)propyl)piperazin-1-yl)-1-oxoisoindolin-2-yl)-3-methylbutanoyl)-4-hydroxy-N-(4-(4-methylthiazol-5-yl)benzyl)pyrrolidine-2-carboxamide] | > 501 | < 25 | –
Cc1ncsc1-c1ccc(CNC(=O)[C@@H]2C[C@@H](O)CN2C(=O)[C@H](C(C)C)N2Cc3ccc(N4CCN(CCCc5ccc(C(=O)N[C@H]6C(C)(C)[C@H](Oc7ccc(C#N)c(Cl)c7)C6(C)C)cc5)CC4)cc3C2=O)cc1 [Example 774, (2S,4R)-1-((S)-2-(6-(4-(3-(4-(((1r,3r)-3-(3-chloro-4-cyanophenoxy)-2,2,4,4-tetramethylcyclobutyl)carbamoyl)phenyl)propyl)piperazin-1-yl)-1-oxoisoindolin-2-yl)-3-methylbutanoyl)-4-hydroxy-N-(4-(4-methylthiazol-5-yl)benzyl)pyrrolidine-2-carboxamide] | > 501 | < 25 | –
CC(C)(C)[C@H](NC(=O)COCCN1CCN(c2ccc(C(=O)N[C@H]3C(C)(C)[C@H](Oc4ccc(C#N)c(Cl)c4)C3(C)C)cn2)CC1)C(=O)N1C[C@H](O)C[C@H]1C(=O)NCc1cc(F)ccc1F [Example 775, N-((1r,3r)-3-(3-chloro-4-cyanophenoxy)-2,2,4,4-tetramethylcyclobutyl)-6-(4-(2-(2-(((S)-1-((2S,4R)-2-((2,5-difluorobenzyl)carbamoyl)-4-hydroxypyrrolidin-1-yl)-3,3-dimethyl-1-oxobutan-2-yl)amino)-2-oxoethoxy)ethyl)piperazin-1-yl)nicotinamide] | > 501 | < 25 | –
CC(C)(C)c1ccc(CNC(=O)[C@@H]2C[C@@H](O)CN2C(=O)[C@@H](NC(=O)COCCN2CCN(c3ccc(C(=O)N[C@H]4C(C)(C)[C@H](Oc5ccc(C#N)c(Cl)c5)C4(C)C)cn3)CC2)C(C)(C)C)cc1 [Example 776, 6-(4-(2-(2-(((S)-1-((2S,4R)-2-((4-(tert-butyl)benzyl)carbamoyl)-4-hydroxypyrrolidin-1-yl)-3,3-dimethyl-1-oxobutan-2-yl)amino)-2-oxoethoxy)ethyl)piperazin-1-yl)-N-((1r,3r)-3-(3-chloro-4-cyanophenoxy)-2,2,4,4-tetramethylcyclobutyl) nicotinamide] | > 501 | < 25 | –
Cc1ncsc1-c1ccc([C@H](C)NC(=O)[C@@H]2C[C@@H](O)CN2C(=O)[C@@H](C(C)C)N2Cc3ccc(N4CCN(CCCc5ccc(C(=O)N[C@H]6C(C)(C)[C@H](Oc7ccc(C#N)c(Cl)c7)C6(C)C)cc5)CC4)cc3C2=O)cc1 [Example 777, (2S,4R)-1-((R)-2-(6-(4-(3-(4-(((1r,3r)-3-(3-chloro-4-cyanophenoxy)-2,2,4,4-tetramethylcyclobutyl)carbamoyl)phenyl)propyl)piperazin-1-yl)-1-oxoisoindolin-2-yl)-3-methylbutanoyl)-4-hydroxy-N-((S)-1-(4-(4-methylthiazol-5-yl)phenyl)ethyl)pyrrolidine-2-carboxamide] | > 501 | – | < 25
Cc1ncsc1-c1ccc([C@H](C)NC(=O)[C@@H]2C[C@@H](O)CN2C(=O)[C@H](C(C)C)N2Cc3ccc(N4CCN(CCCc5ccc(C(=O)N[C@H]6C(C)(C)[C@H](Oc7ccc(C#N)c(Cl)c7)C6(C)C)cc5)CC4)cc3C2=O)cc1 [Example 778, (2S,4R)-1-((S)-2-(6-(4-(3-(4-(((1r,3r)-3-(3-chloro-4-cyanophenoxy)-2,2,4,4-tetramethylcyclobutyl)carbamoyl)phenyl)propyl)piperazin-1-yl)-1-oxoisoindolin-2-yl)-3-methylbutanoyl)-4-hydroxy-N-((S)-1-(4-(4-methylthiazol-5-yl)phenyl)ethyl)pyrrolidine-2-carboxamide] | > 501 | – | < 25
Cc1ncsc1-c1ccc([C@H](C)NC(=O)[C@@H]2C[C@@H](O)CN2C(=O)[C@@H](NC(=O)CCCCN2CCN(c3ccc(C(=O)N[C@H]4C(C)(C)[C@H](Oc5ccc(C#N)c(Cl)c5)C4(C)C)cn3)CC2)C(C)(C)C)cc1 [Example 779, N-((1r,3r)-3-(3-chloro-4-cyanophenoxy)-2,2,4,4-tetramethylcyclobutyl)-6-(4-(5-(((S)-1-((2S,4R)-4-hydroxy-2-(((S)-1-(4-(4-methylthiazol-5-yl)phenyl)ethyl)carbamoyl)pyrrolidin-1-yl)-3,3-dimethyl-1-oxobutan-2-yl)amino)-5-oxopentyl)piperazin-1-yl)nicotinamide] | > 501 | < 25 | –
Cc1ncsc1-c1ccc([C@H](CO)NC(=O)[C@@H]2C[C@@H](O)CN2C(=O)[C@@H](NC(=O)CCCCN2CCN(c3ccc(C(=O)N[C@H]4C(C)(C)[C@H](Oc5ccc(C#N)c(Cl)c5)C4(C)C)cn3)CC2)C(C)(C)C)cc1 [Example 780, N-((1r,3r)-3-(3-chloro-4-cyanophenoxy)-2,2,4,4-tetramethylcyclobutyl)-6-(4-(5-(((S)-1-((2S,4R)-4-hydroxy-2-(((R)-2-hydroxy-1-(4-(4-methylthiazol-5-yl)phenyl)ethyl)carbamoyl)pyrrolidin-1-yl)-3,3-dimethyl-1-oxobutan-2-yl)amino)-5-oxopentyl)piperazin-1-yl)nicotinamide] | < 50 | 26 to 50 | –
